From ChEMBL document CHEMBL3603778, “Exploration on natural product anibamine side chain modification toward development of novel CCR5 antagonists and potential anti-prostate cancer agents” (Bioorg Med Chem Lett, 2015)
pIC50: −log10 of the molar value.

Columns and labels:
[1] = Antiproliferative activity against human M12 cells after 72 hrs by WST1 assay; type: functional, cell-based; conditions: M12, 72 h
[2] = target: C-C chemokine receptor type 5 (Homo sapiens, UniProt P51681); test: Antagonist activity at CCR5 (unknown origin) expressed in human MOLT4 cells assessed as inhibition of CCL5-induced calcium mobilization after 1 hr; type: functional, cell-based, MOLT-4
PC-3 = test: Antiproliferative activity against human PC3 cells after 72 hrs by WST1 assay; type: functional, cell-based; conditions: PC-3, 72 h
[3] = Cytotoxicity against mouse NIH/3T3 cells after 72 hrs by WST1 assay; type: cell-based, NIH3T3; conditions: read-out: TC50

Sequence of C-C chemokine receptor type 5 (P51681 whole entry): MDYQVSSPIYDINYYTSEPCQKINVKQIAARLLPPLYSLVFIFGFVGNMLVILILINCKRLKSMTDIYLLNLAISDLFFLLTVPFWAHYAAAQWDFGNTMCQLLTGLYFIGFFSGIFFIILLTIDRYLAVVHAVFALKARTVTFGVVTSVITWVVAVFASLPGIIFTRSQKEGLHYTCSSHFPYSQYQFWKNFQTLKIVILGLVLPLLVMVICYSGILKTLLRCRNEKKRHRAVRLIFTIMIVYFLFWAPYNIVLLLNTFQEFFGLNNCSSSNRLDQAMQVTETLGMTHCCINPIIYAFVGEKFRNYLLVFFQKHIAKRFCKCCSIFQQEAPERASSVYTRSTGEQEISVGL

pIC50 [2]	pIC50 (PC-3)	Compound	pIC50 [1]	CC50 at 72 h [3] [µM]
4.90	3.99	Cc1c(CNC(=O)c2ccc3ccccc3c2)c(C)[n+]2c(c1CNC(=O)c1ccc3ccccc3c1)CCC2	3.72	–
4.76	4.33	Cc1c(CNC(=O)c2ccc(-c3ccccc3)cc2)c(C)[n+]2c(c1CNC(=O)c1ccc(-c3ccccc3)cc1)CCC2	4.31	228
4.89	4.26	Cc1c(CNC(=O)c2ccc(C3CCCCC3)cc2)c(C)[n+]2c(c1CNC(=O)c1ccc(C3CCCCC3)cc1)CCC2	4.68	43.4
4.52	4.51	Cc1c(CNC(=O)c2ccc(C(C)(C)C)cc2)c(C)[n+]2c(c1CNC(=O)c1ccc(C(C)(C)C)cc1)CCC2	4.22	83.2
4.57	3.77	Cc1c(CNC(=O)c2ccc(C(C)C)cc2)c(C)[n+]2c(c1CNC(=O)c1ccc(C(C)C)cc1)CCC2	3.92	270
4.41	3.83	Cc1c(CNC(=O)c2ccc(Br)cc2)c(C)[n+]2c(c1CNC(=O)c1ccc(Br)cc1)CCC2	4.04	182
4.34	3.75	Cc1c(CNC(=O)c2ccc(Cl)cc2)c(C)[n+]2c(c1CNC(=O)c1ccc(Cl)cc1)CCC2	3.87	263
3.92	–	Cc1c(CNC(=O)c2ccc(C(F)(F)F)cc2)c(C)[n+]2c(c1CNC(=O)c1ccc(C(F)(F)F)cc1)CCC2	–	–
4.17	< 3.52	Cc1c(CNC(=O)c2ccc([N+](=O)[O-])cc2)c(C)[n+]2c(c1CNC(=O)c1ccc([N+](=O)[O-])cc1)CCC2	3.79	–
4.09	–	Cc1c(CNC(=O)c2ccc(F)cc2)c(C)[n+]2c(c1CNC(=O)c1ccc(F)cc1)CCC2	–	–
3.99	–	Cc1c(CNC(=O)c2ccc(C#N)cc2)c(C)[n+]2c(c1CNC(=O)c1ccc(C#N)cc1)CCC2	–	–
3.76	–	Cc1c(CNC(=O)c2ccc(N)cc2)c(C)[n+]2c(c1CNC(=O)c1ccc(N)cc1)CCC2	–	–
–	3.99	CSc1ccc(C(=O)NCc2c(C)c(CNC(=O)c3ccc(SC)cc3)c3[n+](c2C)CCC3)cc1	3.60	–
4.16	3.81	COc1ccc(C(=O)NCc2c(C)c(CNC(=O)c3ccc(OC)cc3)c3[n+](c2C)CCC3)cc1	3.90	–
4.62	3.79	CCc1ccc(C(=O)NCc2c(C)c(CNC(=O)c3ccc(CC)cc3)c3[n+](c2C)CCC3)cc1	3.77	–
4.73	3.61	Cc1ccc(C(=O)NCc2c(C)c(CNC(=O)c3ccc(C)cc3)c3[n+](c2C)CCC3)cc1	3.73	–
5.87	3.29	Cc1c(CNC(=O)c2ccccc2)c(C)[n+]2c(c1CNC(=O)c1ccccc1)CCC2	3.55	212
